# Assay results reported in publication PMC9304322, “Targeting retinoic acid receptor alpha-corepressor interaction activates chaperone-mediated autophagy and protects against retinal degeneration” (Nature Communications, 2022).
# Where “and” joins values, the source holds several entries; their conditions need not be identical. Identical values can stand only once.
# What was measured:
# NIH3T3 cells = test: Microarray transcriptional changes; type: cell-based, mouse; design: Ratio of expression relative to untreated cells, Crtam (NM_019465) / Ratio of expression relative to untreated cells, 4930594C11Rik (NR_024017) / Ratio of expression relative to untreated cells, Non-coding chr6:36765550-36793825_F / Ratio of expression relative to untreated cells, Anti-sense ENSMUST00000097448 / Ratio of expression relative to untreated cells, Non-coding chr1:64232564-64349617_R / Ratio of expression relative to untreated cells, Foxa2 (NM_010446) / Ratio of expression relative to untreated cells, Non-coding chr15:83266264-83294664_F / Ratio of expression relative to untreated cells, Nqo1 (NM_008706) / Ratio of expression relative to untreated cells, Gsta4 (NM_010357) / Ratio of expression relative to untreated cells, E330014E10Rik (NM_001122668) / Ratio of expression relative to untreated cells, AU017674 (CK334688) / Ratio of expression relative to untreated cells, Defb12 (NM_152802) / Ratio of expression relative to untreated cells, Non-coding chr1:138570107-138632310_F / Ratio of expression relative to untreated cells, Non-coding chr16:39984031-40081556_R / Ratio of expression relative to untreated cells, Gm5106 (XR_168418) / Ratio of expression relative to untreated cells, Ushbp1 (NM_181418) / Ratio of expression relative to untreated cells, Non-coding chr11:70196232-70203307_R / Ratio of expression relative to untreated cells, Eno4 (NM_178689) / Ratio of expression relative to untreated cells, Non-coding chr13:64044376-64045368_R / Ratio of expression relative to untreated cells, Dsg4 (AY170623) / Ratio of expression relative to untreated cells, Stx2 (NM_007941) / Ratio of expression relative to untreated cells, Non-coding chr12:52944867-52971992_R / Ratio of expression relative to untreated cells, Htr1b (NM_010482) / Ratio of expression relative to untreated cells, Non-coding chr16:44717531-44724206_F / Ratio of expression relative to untreated cells, Non-coding chr5:54053328-54053870_F: unit not given here; details: 20μM for 24 h; for Ratio of expression relative to untreated cells, 4930594C11Rik (NR_024017) / Ratio of expression relative to untreated cells, Anti-sense ENSMUST00000097448 / Ratio of expression relative to untreated cells, Crtam (NM_019465) / Ratio of expression relative to untreated cells, Defb12 (NM_152802) / Ratio of expression relative to untreated cells, Dsg4 (AY170623) / Ratio of expression relative to untreated cells, Eno4 (NM_178689) / Ratio of expression relative to untreated cells, Foxa2 (NM_010446) / Ratio of expression relative to untreated cells, Gm5106 (XR_168418) / Ratio of expression relative to untreated cells, Htr1b (NM_010482) / Ratio of expression relative to untreated cells, Non-coding chr1:64232564-64349617_R / Ratio of expression relative to untreated cells, Non-coding chr5:54053328-54053870_F / Ratio of expression relative to untreated cells, Non-coding chr6:36765550-36793825_F / Ratio of expression relative to untreated cells, Non-coding chr11:70196232-70203307_R / Ratio of expression relative to untreated cells, Non-coding chr12:52944867-52971992_R / Ratio of expression relative to untreated cells, Non-coding chr13:64044376-64045368_R / Ratio of expression relative to untreated cells, Non-coding chr15:83266264-83294664_F / Ratio of expression relative to untreated cells, Non-coding chr16:39984031-40081556_R / Ratio of expression relative to untreated cells, Non-coding chr16:44717531-44724206_F / Ratio of expression relative to untreated cells, Ushbp1 (NM_181418) / Ratio of expression relative to untreated cells, AU017674 (CK334688) / Ratio of expression relative to untreated cells, E330014E10Rik (NM_001122668) / Ratio of expression relative to untreated cells, Gsta4 (NM_010357) / Ratio of expression relative to untreated cells, Non-coding chr1:138570107-138632310_F / Ratio of expression relative to untreated cells, Nqo1 (NM_008706): NIH3T3; for Ratio of expression relative to untreated cells, 4930594C11Rik (NR_024017) / Ratio of expression relative to untreated cells, Anti-sense ENSMUST00000097448 / Ratio of expression relative to untreated cells, Crtam (NM_019465) / Ratio of expression relative to untreated cells, Defb12 (NM_152802) / Ratio of expression relative to untreated cells, Dsg4 (AY170623) / Ratio of expression relative to untreated cells, Eno4 (NM_178689) / Ratio of expression relative to untreated cells, Foxa2 (NM_010446) / Ratio of expression relative to untreated cells, Gm5106 (XR_168418) / Ratio of expression relative to untreated cells, Htr1b (NM_010482) / Ratio of expression relative to untreated cells, Non-coding chr1:64232564-64349617_R / Ratio of expression relative to untreated cells, Non-coding chr5:54053328-54053870_F / Ratio of expression relative to untreated cells, Non-coding chr6:36765550-36793825_F / Ratio of expression relative to untreated cells, Non-coding chr11:70196232-70203307_R / Ratio of expression relative to untreated cells, Non-coding chr12:52944867-52971992_R / Ratio of expression relative to untreated cells, Non-coding chr13:64044376-64045368_R / Ratio of expression relative to untreated cells, Non-coding chr15:83266264-83294664_F / Ratio of expression relative to untreated cells, Non-coding chr16:39984031-40081556_R / Ratio of expression relative to untreated cells, Non-coding chr16:44717531-44724206_F / Ratio of expression relative to untreated cells, Ushbp1 (NM_181418): direction Down; for Ratio of expression relative to untreated cells, AU017674 (CK334688) / Ratio of expression relative to untreated cells, E330014E10Rik (NM_001122668) / Ratio of expression relative to untreated cells, Gsta4 (NM_010357) / Ratio of expression relative to untreated cells, Non-coding chr1:138570107-138632310_F / Ratio of expression relative to untreated cells, Nqo1 (NM_008706): direction Up
# Procedure: Total RNA of the treated cells was extracted using TRIzol (Invitrogen) and purified with RNeasy chromatography (Qiagen). Cy3-labeled RNA (0.6 μg) from each condition was hybridized to Agilent Mouse 8x60K. Data were processed using the oligo package and normalized using Robust Multiarray Average (RMA) method. […] Pathway analysis was performed using the STRING database ([…]).
# [1] = system: NIH3T3 cells control (empty vector) or knock-down (KD) for N-CoR1; test: CMA activity in NIH3T3 control or knock-down for N-CoR1; type: cell-based, mouse; design: CMA activity: unit not given here; details: for activating effect on CMA upon knock-down of NCOR1: 20μM for 24 h; for CMA activity: Fig. 2h, individual replicate values
# Procedure: NIH3T3 mouse fibroblasts (CRL-1658), CaCo2 cells human colorectal adenocarcinoma (HTB-3), and the N2a neuroblastoma cell line (CCL-131) were obtained from the American Type Culture Collection and were validated by genomic PCR. Primary human fibroblasts (GM01651) were from Coriell Repository. Cells were cultured to full confluence in a 37 °C incubator with 5% CO2 in complete Dulbecco’s modified Eagle’s medium (DMEM, Sigma #D5030) supplemented with 10% heat-inactivated newborn calf serum (HyClone #SH30401.02HI), 1% penicillin/streptomycin/fungizone (Invitrogen, #10072322). All the cell lines were tested for mycoplasma contamination using DNA staining protocol with Hoechst 33258 dye and none of them was found positive. Knock-down of Ncor1 was done using lentiviral mediated shRNA (SHCLNG-NM_011308) from the Sigma Mission library following standard procedures. The efficiency of knock-down was tested by immunoblot. Cell viability was measured using the CellTiter-Blue kit (Promega, #G9241) 24 h after the addition of the different stressors according to the manufacturer’s instructions. All cell lines were validated by genomic PCR.
# Cells were transduced with lentivirus carrying the KFERQ-PS-Dendra reporter as before. Cells were photoactivated by exposure to a 3.5 mA (current constant) light emitting diode (LED: Norlux, 405 nm) for 3 min and then plated in glass-bottom 96 well plates. At the desired times, cells were fixed with 4% PFA and imaged using high-content microscopy (Operetta system, Perkin Elmer). Images were quantified using the manufacturer’s software in a minimum of 1,200 cells in 9 independent fields per well. […] This was particularly important in the case of primary human cells where the efficiency of transduction was ~65%. To avoid confounding effects for drug-induced changes in cell volume or adherence to the plate that could bring a fraction of the cells per field outside of focus, we set a threshold to count only […] that have at least 1/10 of the average number of […] detected in the untreated wells for each cell type (3–4 puncta/cell in the case of NIH3T3 and N2a cells and 5 puncta/cell in primary human fibroblasts).
# rd10 mice = details: mouse, in vivo, ip, 40 mg/kg
SMILES,"Ratio of expression relative to untreated cells, Stx2 (NM_007941) (NIH3T3 cells)","Ratio of expression relative to untreated cells, 4930594C11Rik (NR_024017) (NIH3T3 cells)","Ratio of expression relative to untreated cells, Anti-sense ENSMUST00000097448 (NIH3T3 cells)","Ratio of expression relative to untreated cells, Crtam (NM_019465) (NIH3T3 cells)","Ratio of expression relative to untreated cells, Defb12 (NM_152802) (NIH3T3 cells)","Ratio of expression relative to untreated cells, Dsg4 (AY170623) (NIH3T3 cells)","Ratio of expression relative to untreated cells, Eno4 (NM_178689) (NIH3T3 cells)","Ratio of expression relative to untreated cells, Foxa2 (NM_010446) (NIH3T3 cells)","Ratio of expression relative to untreated cells, Gm5106 (XR_168418) (NIH3T3 cells)","Ratio of expression relative to untreated cells, Htr1b (NM_010482) (NIH3T3 cells)","Ratio of expression relative to untreated cells, Non-coding chr1:64232564-64349617_R (NIH3T3 cells)","Ratio of expression relative to untreated cells, Non-coding chr5:54053328-54053870_F (NIH3T3 cells)","Ratio of expression relative to untreated cells, Non-coding chr6:36765550-36793825_F (NIH3T3 cells)","Ratio of expression relative to untreated cells, Non-coding chr11:70196232-70203307_R (NIH3T3 cells)","Ratio of expression relative to untreated cells, Non-coding chr12:52944867-52971992_R (NIH3T3 cells)","Ratio of expression relative to untreated cells, Non-coding chr13:64044376-64045368_R (NIH3T3 cells)","Ratio of expression relative to untreated cells, Non-coding chr15:83266264-83294664_F (NIH3T3 cells)","Ratio of expression relative to untreated cells, Non-coding chr16:39984031-40081556_R (NIH3T3 cells)","Ratio of expression relative to untreated cells, Non-coding chr16:44717531-44724206_F (NIH3T3 cells)","Ratio of expression relative to untreated cells, Ushbp1 (NM_181418) (NIH3T3 cells)",also measured
Clc1ccc2c(c1)OCC(c1ccc(-c3ccccc3)cc1)=N2 [CA39],0.118,0.02758,0.03251,0.02443,0.01369,0.04187,0.1079,0.05303,0.2892,0.02191,0.044,0.08567,0.01728,0.1333,0.02965,0.157,0.07415,0.3908,0.01733,0.1898,"Ratio of expression relative to untreated cells, AU017674 (CK334688) (NIH3T3 cells): 18.0101; Ratio of expression relative to untreated cells, E330014E10Rik (NM_001122668) (NIH3T3 cells): 1.584; Ratio of expression relative to untreated cells, Gsta4 (NM_010357) (NIH3T3 cells): 2.331; Ratio of expression relative to untreated cells, Non-coding chr1:138570107-138632310_F (NIH3T3 cells): 7.863; Ratio of expression relative to untreated cells, Nqo1 (NM_008706) (NIH3T3 cells): 1.3; activating effect on CMA upon knock-down of NCOR1 [1]: completely ablated; CMA activity ([1]; Ctr cells): 28.3 and 30.0 and 31.5; CMA activity ([1]; NCOR(-) (NCoR1 KD) cells): 3.7 and 5.0 and 5.1"
CC(=O)Nc1ccc(C2=Nc3ccc(Cl)cc3OC2)cc1 [CA77],0.09232,0.0118,0.02606,0.02383,0.01656,0.02136,0.2317,0.03773,0.09934,0.04553,0.03926,0.08612,0.01829,0.1429,0.03376,0.1362,0.06682,0.07815,0.03891,0.1648,"Ratio of expression relative to untreated cells, AU017674 (CK334688) (NIH3T3 cells): 22.5451; Ratio of expression relative to untreated cells, E330014E10Rik (NM_001122668) (NIH3T3 cells): 33.8974; Ratio of expression relative to untreated cells, Gsta4 (NM_010357) (NIH3T3 cells): 18.7705; Ratio of expression relative to untreated cells, Non-coding chr1:138570107-138632310_F (NIH3T3 cells): 6.319; Ratio of expression relative to untreated cells, Nqo1 (NM_008706) (NIH3T3 cells): 4.968; activating effect on CMA upon knock-down of NCOR1 [1]: completely ablated; CMA activity ([1]; Ctr cells): 22.4 and 17.9 and 26.0; CMA activity ([1]; NCOR(-) (NCoR1 KD) cells): 4.3 and 4.0 and 4.8; ERG amplitude of b-mixed, b-phot and flicker waves (rd10 mice): significantly higher amplitude"
